Laboratory results published in the supplement of paper PMC11451515.

What was measured:
Conditions in all cases: 48 h
SEM cells [1] = assay: cell viability relative to DMSO control; higher = less cytotoxic
Summary of the method: (§1)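 Library compounds in DMSO were pin-dosed into 1536-well plates (5 μl) holding NOMO1 or SEM (500 cells/well) or P12-Ichikawa (1000 cells/well) leukemia cells, across an 11-point threefold series of 47 μM to 0.79 nM. Each cell line had been adapted for at least four passages in each medium. CellTiter-Glo One luminescence was read after 48 h at 37°C. Viability is the per-plate percentage relative to DMSO wells, with cell-free wells as background.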

P12-Ichikawa [2] = assay: as above
Summary of the method: as §1

NOMO1 [3] = assay: as above
Summary of the method: as §1

SEM cells [4] = assay: AUC of viability dose-response curve (% viability x log10 dose units); higher = less sensitive
Summary of the method: (§2)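 Leukemia cells adapted to each medium (500 or 1000 cells/well, 1536-well plates) were exposed to library compounds in DMSO for 48 h at 37°C at 11 threefold doses, 47 μM to 0.79 nM. Luminescence by CellTiter-Glo One was normalised per plate to DMSO and cell-free wells, then fitted with a four-parameter log-logistic curve on log10 dose. Curves above full viability were scaled and quality-control failures removed before area under the curve was integrated by trapezoidal rule.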

P12-Ichikawa [5] = assay: as above
Summary of the method: as §2

NOMO1 [6] = assay: as above
Summary of the method: as §2

CC(C)CC(N(C)C)C1(c2ccc(Cl)cc2)CCC1 (configuration not stated)
cell viability [%]
Conditions	NOMO1 [3]	P12-Ichikawa [2]	SEM cells [1]
HPLM + 10% dialyzed FBS, 0.000781 µM	118	114	114
HPLM + 10% dialyzed FBS, 0.00234 µM	136	120	119
HPLM + 10% dialyzed FBS, 0.00702 µM	120	105	117
HPLM + 10% dialyzed FBS, 0.0211 µM	119	113	133
HPLM + 10% dialyzed FBS, 0.0632 µM	116	114	124
HPLM + 10% dialyzed FBS, 0.19 µM	117	111	117
HPLM + 10% dialyzed FBS, 0.569 µM	116	105	126
HPLM + 10% dialyzed FBS, 1.71 µM	113	86.3	110
HPLM + 10% dialyzed FBS, 5.12 µM	107	57.7	90.4
HPLM + 10% dialyzed FBS, 15.4 µM	94.5	54.9	54.3
HPLM + 10% dialyzed FBS, 46.1 µM	87	34	59.1
RPMI 5 mM glucose + 10% FBS, 0.000781 µM	110	109	111
RPMI 5 mM glucose + 10% FBS, 0.00234 µM	113	115	127
RPMI 5 mM glucose + 10% FBS, 0.00702 µM	113	113	118
RPMI 5 mM glucose + 10% FBS, 0.0211 µM	118	109	116
RPMI 5 mM glucose + 10% FBS, 0.0632 µM	117	106	121
RPMI 5 mM glucose + 10% FBS, 0.19 µM	123	112	128
RPMI 5 mM glucose + 10% FBS, 0.569 µM	119	94	121
RPMI 5 mM glucose + 10% FBS, 1.71 µM	116	82.2	105
RPMI 5 mM glucose + 10% FBS, 5.12 µM	98.2	51.4	75
RPMI 5 mM glucose + 10% FBS, 15.4 µM	94.1	48.7	40.2
RPMI 5 mM glucose + 10% FBS, 46.1 µM	99	49.1	46.7
RPMI 5 mM glucose + 10% dialyzed FBS, 0.000781 µM	109	106	–
RPMI 5 mM glucose + 10% dialyzed FBS, 0.00234 µM	110	114	–
RPMI 5 mM glucose + 10% dialyzed FBS, 0.00702 µM	124	106	–
RPMI 5 mM glucose + 10% dialyzed FBS, 0.0211 µM	115	107	–
RPMI 5 mM glucose + 10% dialyzed FBS, 0.0632 µM	122	111	–
RPMI 5 mM glucose + 10% dialyzed FBS, 0.19 µM	119	110	–
RPMI 5 mM glucose + 10% dialyzed FBS, 0.569 µM	120	86.7	–
RPMI 5 mM glucose + 10% dialyzed FBS, 1.71 µM	112	76.2	–
RPMI 5 mM glucose + 10% dialyzed FBS, 5.12 µM	111	49.9	–
RPMI 5 mM glucose + 10% dialyzed FBS, 15.4 µM	103	45.3	–
RPMI 5 mM glucose + 10% dialyzed FBS, 46.1 µM	95.1	41.6	–

AUC of viability dose-response curve
Conditions	NOMO1 [6]	P12-Ichikawa [5]	SEM cells [4]
HPLM + 10% dialyzed FBS	441	393	424
RPMI 5 mM glucose + 10% FBS	457	392	408
RPMI 5 mM glucose + 10% dialyzed FBS	463	382	406
